# Assay results published in patent publication US8399490B2, “Insecticides” (Syngenta Crop Protection LLC, priority 2007, dated 2013).
# Like-named read-outs stand apart in the source and are kept apart here.
# Columns and labels:
# [1] = tested on: Spodoptera littoralis (Egyptian cotton leafworm); assay: Example B1: Activity against Spodoptera littoralis (larvicide, feeding/residual contact activity, preventive), cotton leaf discs; format: in vivo; details: foliar, 72 h, L1 larvae on cotton leaf discs, 3 days after treatment
# Excerpt: Activity Against Spodoptera littoralis (Egyptian Cotton Leafworm)
# (§1) (Larvicide, Feeding/Residual Contact Activity, Preventive)
# The samples are checked for mortality, repellent effect, feeding behaviour, and growth regulation 3 days after treatment. In this test, compounds listed in Table P above show good activity. In particular compounds P.1, P.2, P.3, P.4, P.5, P.6, P.7, P.8, P.9, P.10, P.11, P.12, P.13, P.14, P.15, P.16, P.17, P.18, P.19, P.20, P.21, P.22, P.23, P.24, P.25, P.26, P.27, P.28, P.29, P.30, P.31, P.32, P.33, P.34, P.35, P.36, P.37, P.38, P.39, P.40, P.41, P.42, P.43, P.44, P.46, P.50, P.51, P.52, P.55, P.56, P.57, P.58, P.59, P.60, P61, P.66, P.67, P.68, P.69, P.70, P.71, P.72, P.73, P.74, P.75, P.76, P.77, P.78, P.83, P.84, P.87 and P.88 show an activity of over 80% at a concentration of 400 ppm.
# [2] = tested on: Spodoptera littoralis (Egyptian cotton leafworm); assay: Example B9: comparison with state of the art, Spodoptera littoralis (larvicide, feeding/residual contact activity, preventive); format: in vivo
# [3] = tested on: Heliothis virescens (tobacco budworm); assay: Example B2: Activity against Heliothis virescens (ovo-larvicide, feeding/contact activity, curative), eggs on artificial diet; format: in vivo; details: 96 h, 4 days incubation
# Method: Activity Against Heliothis virescens (Tobacco Budworm) (Ovo-Larvicide, Feeding/Contact Activity, Curative) Eggs (0-24 h old) are placed in 24-well microtiter plate on artificial diet and treated with test solutions by pipetting. After an incubation period of 4 days, samples are checked for egg mortality, larval mortality, and growth regulation.
# [4] = tested on: Plutella xylostella (diamond back moth); assay: Example B3: Plutella xylostella (larvicide, feeding/residual contact activity, preventive), artificial diet MTP; format: in vivo; details: 120 h, L2 larvae on artificial diet, 5 days incubation
# Method: (§2) Plutella xylostella (Diamond Back Moth) (Larvicide, Feeding/Residual Contact Activity, Preventive) 24-well microtiter plate (MTP) with artificial diet is treated with test solutions by pipetting. After drying, the MTP's are infested with larvae (L2) (10-15 per well). After an incubation period of 5 days, samples are checked for larval mortality, antifeedant and growth regulation.
# [5] = tested on: Plutella xylostella (diamond back moth); assay: Example B8: comparison with state of the art, Plutella xylostella (larvicide, feeding/residual contact activity, preventive); format: in vivo
# Method: Plutella xylostella (Diamond Back Moth)
# as §1
# 24-well microtiter plate (MTP) with artificial diet is treated with test solutions by pipetting. After drying, the MTP's are infested with larvae (L2) (10-15 per well). After an incubation period of 5 days, samples are checked for larval mortality, antifeedant and growth regulation.
# [6] = tested on: Diabrotica balteata (corn root worm); assay: Example B4: Diabrotica balteata (larvicide, feeding/residual contact activity, preventive), artificial diet MTP; format: in vivo; details: 120 h, L2 larvae on artificial diet, 5 days incubation
# Method: as §2, with “Diabrotica balteata (Corn Root Worm)” for “Plutella xylostella (Diamond Back Moth)”, “(6-10” for “(10-15”
# [7] = tested on: Myzus persicae (green peach aphid); details: foliar, 144 h, read-out: activity
# [8] = tested on: Myzus persicae (green peach aphid); assay: Example B6: Activity against Myzus persicae (mixed population, systemic/feeding activity, curative), pea seedling roots in test solution; details: 144 h, read-out: activity
SMILES,melting point [°C],pest or weed control at 400 ppm [1] [%],pest or weed control at 400 ppm [3] [%],pest or weed control at 400 ppm [4] [%],pest or weed control at 400 ppm [6] [%],pest or weed control at 400 ppm [7] [%],pest or weed control at 400 ppm [8] [%],also measured
CSCC(C)(C)NC(=O)c1c(NC(=O)c2cc(C(F)(F)F)nn2-c2ncccc2Cl)c(C)cc2c1OC(F)(F)O2,173 to 174,–,–,–,–,–,–,–
CC(C)(CS(C)(=O)=O)NC(=O)c1c(NC(=O)c2cc(C(F)(F)F)nn2-c2ncccc2Cl)c(Cl)cc2c1OCO2,88 to 90,–,–,–,–,–,–,–
C[S+]([O-])CC(C)(C)NC(=O)c1c(NC(=O)c2cc(Cl)nn2-c2ncccc2Cl)c(Cl)cc2c1OC(F)(F)O2 (stereo not drawn),240 to 242,–,–,–,–,–,–,–
CC(C)(CS(C)(=N)=O)NC(=O)c1c(NC(=O)c2cc(Cl)nn2-c2ncccc2Cl)c(Cl)cc2c1OC(F)(F)O2 (stereo not drawn),188 to 190,–,–,–,–,–,–,–
CNC(=O)c1c(NC(=O)c2cc(OC(F)F)nn2-c2ncccc2Cl)c(C)cc2c1OC(F)(F)O2,236 to 237,–,–,–,–,–,–,–
Cc1cc2c(c(C(=O)NC(C)C)c1NC(=O)c1cc(OC(F)F)nn1-c1ncccc1Cl)OC(F)(F)O2,203 to 204,–,–,–,–,–,–,–
CNC(=O)c1c(NC(=O)c2cc(C(F)F)nn2-c2ncccc2Cl)c(C)cc2c1OC(C)C2 (stereo not drawn),205 to 206,–,–,–,–,–,–,–
Cc1cc2c(c(C(=O)NC(C)C)c1NC(=O)c1cc(C(F)F)nn1-c1ncccc1Cl)OC(C)C2 (stereo not drawn),140 to 142,–,–,–,–,–,–,–
CC(C)NC(=O)c1c(NC(=O)c2cc(C(F)(F)F)nn2-c2ncccc2Cl)c(Cl)cc2c1OC(F)(F)O2 [P.13],–,> 80,> 80,> 80,> 80,–,–,"Death rate (%) after 5 days ([2]; Concentration 12.5 ppm): 100%; Death rate (%) after 5 days ([2]; Concentration 50 ppm): 100%; Death rate (%) after 5 days ([2]; Concentration 200 ppm): 100%; insecticidal action compared with the compound from the state of the art (T91.3) ([2]; on Spodoptera littoralis, especially at low application rates): substantially better insecticidal action; Death rate (%) after 5 days ([5]; Concentration 12.5 ppm): 100%; Death rate (%) after 5 days ([5]; Concentration 50 ppm): 100%; Death rate (%) after 5 days ([5]; Concentration 200 ppm): 100%; insecticidal action compared with the compound from the state of the art (T91.3) ([5]; on Plutella xylostella, especially at low application rates): substantially better insecticidal action"
CNC(=O)c1c(NC(=O)c2cc(Cl)nn2-c2ncccc2Cl)c(Cl)cc2c1OC(F)(F)O2 [P.22],–,> 80,> 80,> 80,> 80,> 80,> 80,–
CC(C)NC(=O)c1c(NC(=O)c2cc(Cl)nn2-c2ncccc2Cl)c(Cl)cc2c1OC(F)(F)O2 [P.23],–,> 80,> 80,> 80,> 80,> 80,> 80,–
CSCC(C)(C)NC(=O)c1c(NC(=O)c2cc(Cl)nn2-c2ncccc2Cl)c(Cl)cc2c1OC(F)(F)O2 [P.24],–,> 80,> 80,> 80,> 80,> 80,> 80,–
CNC(=O)c1c(NC(=O)c2cc(Br)nn2-c2ncccc2Cl)c(C)cc2c1OC(F)(F)O2 [P.26],–,> 80,> 80,> 80,> 80,> 80,> 80,–
CSCC(C)(C)NC(=O)c1c(NC(=O)c2cc(Br)nn2-c2ncccc2Cl)c(C)cc2c1OC(F)(F)O2 [P.27],–,> 80,> 80,> 80,> 80,> 80,> 80,–
Cc1cc2c(c(C(=O)NC(C)C)c1NC(=O)c1cc(Cl)nn1-c1ncccc1Cl)OC(F)(F)O2 [P.30],–,> 80,> 80,> 80,> 80,> 80,> 80,–
CSCC(C)(C)NC(=O)c1c(NC(=O)c2cc(Cl)nn2-c2ncccc2Cl)c(C)cc2c1OC(F)(F)O2 [P.31],–,> 80,> 80,> 80,> 80,> 80,> 80,–
COc1cc(C(=O)Nc2ccc3c(c2C(=O)NC(C)C)OCO3)n(-c2ncccc2Cl)n1 [P.64],216 to 217,–,–,–,–,–,–,–
CCNC(=O)c1c(NC(=O)c2cc(Br)nn2-c2ncccc2Cl)ccc2c1OCO2 [P.65],178 to 179,–,–,–,–,–,–,–
CNC(=O)c1c(NC(=O)c2cc(C(F)F)nn2-c2ncccc2Cl)ccc2c1OC(C)C2 (stereo not drawn) [P.85],211 to 213,–,–,–,–,–,–,–
CC(C)NC(=O)c1c(NC(=O)c2cc(C(F)F)nn2-c2ncccc2Cl)ccc2c1OC(C)C2 (stereo not drawn) [P.86],169 to 170,–,–,–,–,–,–,–
"CC(C)NC(=O)c1cc2c(c(Cl)c1NC(=O)c1cc(C(F)(F)F)nn1-c1ncccc1Cl)OC(F)(F)O2 [T91.3, reference compound]",–,–,–,–,–,–,–,Death rate (%) after 5 days ([2]; Concentration 12.5 ppm): 0%; Death rate (%) after 5 days ([2]; Concentration 50 ppm): 0%; Death rate (%) after 5 days ([2]; Concentration 200 ppm): 100 (growth) %; Death rate (%) after 5 days ([5]; Concentration 12.5 ppm): 0%; Death rate (%) after 5 days ([5]; Concentration 50 ppm): 80%; Death rate (%) after 5 days ([5]; Concentration 200 ppm): 100%
